From ChEMBL document CHEMBL3632523, “Evaluation of Improved Glycogen Synthase Kinase-3α Inhibitors in Models of Acute Myeloid Leukemia” (J Med Chem, 2015)
Converted amounts (≈) assume the structure as drawn. Blank lines part the entries; values can stand above or below the compound they belong to. The source made the active and inactive calls. The rule behind the calls is not given here.

Tests used:
[1] = Aqueous solubility of the compound in water by HPLC based shake flask method; format: physicochemical
[2] = target: T1, Glycogen synthase kinase-3 alpha (Homo sapiens, UniProt P49840); settings: NB-4, 5 to 10 uM
Target sequence in this assay (P49840 2-483 limits assumed): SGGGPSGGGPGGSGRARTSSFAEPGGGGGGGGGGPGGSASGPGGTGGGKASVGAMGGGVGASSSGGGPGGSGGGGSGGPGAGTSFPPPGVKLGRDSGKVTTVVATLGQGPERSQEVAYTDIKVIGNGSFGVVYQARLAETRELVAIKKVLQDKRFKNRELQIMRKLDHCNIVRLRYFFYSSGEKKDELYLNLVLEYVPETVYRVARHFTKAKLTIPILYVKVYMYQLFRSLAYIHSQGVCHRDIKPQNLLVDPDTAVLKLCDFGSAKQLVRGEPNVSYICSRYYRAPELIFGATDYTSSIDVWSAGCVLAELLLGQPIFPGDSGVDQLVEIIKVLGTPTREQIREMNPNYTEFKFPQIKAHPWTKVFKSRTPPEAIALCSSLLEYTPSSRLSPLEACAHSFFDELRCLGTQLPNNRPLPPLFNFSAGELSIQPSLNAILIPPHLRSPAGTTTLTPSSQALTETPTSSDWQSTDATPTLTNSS
Description: Inhibition of GSK-3 alpha in human NB4 cells assessed as CD11b expression at 5 to 10 uM after 6 days by flow cytometry

[3] = target: T1, Glycogen synthase kinase-3 alpha; settings: NB-4, 5 to 10 uM; remark: listed apart in the source
Target sequence in this assay (P49840 2-483 limits assumed): as above
Description: Inhibition of GSK-3 alpha in human NB4 cells assessed as increased vacuolization at 5 to 10 uM after 6 days by May-Grunwald Giemsa staining based light microscopy

[4] = target: T1, Glycogen synthase kinase-3 alpha; settings: HL-60, 5 to 10 uM
Target sequence in this assay (P49840 2-483 limits assumed): as above
Description: Inhibition of GSK-3 alpha in human HL-60 cells assessed as decreased nuclear to cytoplasmic ratio at 5 to 10 uM after 6 days by May-Grunwald Giemsa staining based light microscopy

[5] = target: T1, Glycogen synthase kinase-3 alpha
Target sequence in this assay (P49840 whole entry): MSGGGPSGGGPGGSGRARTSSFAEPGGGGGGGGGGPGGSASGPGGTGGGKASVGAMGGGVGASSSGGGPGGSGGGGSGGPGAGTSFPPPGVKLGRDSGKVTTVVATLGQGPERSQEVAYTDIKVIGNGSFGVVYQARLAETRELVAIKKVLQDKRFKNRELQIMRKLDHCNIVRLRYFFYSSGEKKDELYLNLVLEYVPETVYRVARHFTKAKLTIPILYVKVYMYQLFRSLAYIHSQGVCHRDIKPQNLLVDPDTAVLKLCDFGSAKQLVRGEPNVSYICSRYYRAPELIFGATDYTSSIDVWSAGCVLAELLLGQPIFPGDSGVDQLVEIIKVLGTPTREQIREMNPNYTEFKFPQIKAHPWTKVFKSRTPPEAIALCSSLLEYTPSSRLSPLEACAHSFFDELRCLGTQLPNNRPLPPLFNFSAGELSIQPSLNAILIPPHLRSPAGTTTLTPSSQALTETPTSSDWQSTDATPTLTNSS

[6] = target: T1, Glycogen synthase kinase-3 alpha; settings: HL-60, 5 to 10 uM; remark: listed apart in the source
Target sequence in this assay (P49840 2-483 limits assumed): as the sequence (P49840 2-483 limits assumed) above

[7] = target: T1, Glycogen synthase kinase-3 alpha; settings: NB-4, 5 to 10 uM; remark: listed apart in the source
Target sequence in this assay (P49840 2-483 limits assumed): as above
Description: Inhibition of GSK-3 alpha in human NB4 cells assessed as decreased nuclear to cytoplasmic ratio at 5 to 10 uM after 6 days by May-Grunwald Giemsa staining based light microscopy

[8] = target: T1, Glycogen synthase kinase-3 alpha; settings: HL-60, 5 to 10 uM; remark: listed apart in the source
Target sequence in this assay (P49840 2-483 limits assumed): as above
Description: Inhibition of GSK-3 alpha in human HL-60 cells assessed as CD11c expression at 5 to 10 uM after 6 days by flow cytometry

Danio rerio [9] = assay: Induction of morphological abnormality wild type zebrafish embryo in E3 medium assessed as stunted and crooked tail phenotype at >30 uM dosed 24 hrs of post fertilization; format: functional, organism-based
[10] = target: Glycogen synthase kinase-3 beta (Homo sapiens, UniProt P49841)
Glycogen synthase kinase-3 beta, sequence (P49841 whole entry): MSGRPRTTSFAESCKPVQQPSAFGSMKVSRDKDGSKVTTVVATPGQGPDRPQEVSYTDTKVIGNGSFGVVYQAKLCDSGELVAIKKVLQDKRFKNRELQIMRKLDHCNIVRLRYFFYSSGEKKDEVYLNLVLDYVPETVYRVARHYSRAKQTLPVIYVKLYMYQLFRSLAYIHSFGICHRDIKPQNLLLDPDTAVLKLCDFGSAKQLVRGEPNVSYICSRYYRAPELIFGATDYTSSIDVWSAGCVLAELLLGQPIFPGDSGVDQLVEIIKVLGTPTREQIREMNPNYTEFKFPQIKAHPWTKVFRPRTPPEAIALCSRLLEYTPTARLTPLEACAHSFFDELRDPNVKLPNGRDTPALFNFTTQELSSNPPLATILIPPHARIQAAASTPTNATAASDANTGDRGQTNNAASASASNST

[11] = target: T1, Glycogen synthase kinase-3 alpha; settings: HL-60, 5 to 10 uM; remark: listed apart in the source
Description: Inhibition of GSK-3 alpha in human HL-60 cells assessed as CD11b expression at 5 to 10 uM after 6 days by flow cytometry

[12] = target: T1, Glycogen synthase kinase-3 alpha; settings: HL-60, 5 to 10 uM; remark: listed apart in the source
Description: Inhibition of GSK-3 alpha in human HL-60 cells assessed as increased vacuolization at 5 to 10 uM after 6 days by May-Grunwald Giemsa staining based light microscopy

[13] = target: T1, Glycogen synthase kinase-3 alpha; settings: NB-4, 5 to 10 uM; remark: listed apart in the source
[14] = target: T1, Glycogen synthase kinase-3 alpha; settings: HL-60, 5 to 10 uM; remark: listed apart in the source
Description: Inhibition of GSK-3 alpha in human HL-60 cells assessed as CD14 expression at 5 to 10 uM after 6 days by flow cytometry

[15] = target: T1, Glycogen synthase kinase-3 alpha; settings: NB-4, 5 to 10 uM; remark: listed apart in the source
Description: Inhibition of GSK-3 alpha in human NB4 cells assessed as CD14 expression at 5 to 10 uM after 6 days by flow cytometry

Danio rerio [16] = assay: Inhibition of embryonic development in wild type zebrafish embryo in E3 medium assessed as beta catenin activation at >30 uM dosed 24 hrs of post fertilization; format: functional, organism-based
Danio rerio [17] = assay: Induction of morphological abnormality in wild type zebrafish embryo in E3 medium at 1 to 15 uM dosed 24 hrs of post fertilization; format: functional, organism-based
[18] = target: T1, Glycogen synthase kinase-3 alpha; settings: NB-4, 5 to 10 uM; remark: listed apart in the source
Description: Inhibition of GSK-3 alpha in human NB4 cells assessed as CD11c expression at 5 to 10 uM after 6 days by flow cytometry

Danio rerio [19] = assay: Toxicity in wild type zebrafish embryo in E3 medium assessed as induction of lethality treated at <60 uM dosed 24 hrs of post fertilization observed on 96 to 120 hrs of post fertilization; format: organism-based; settings: in vivo
Danio rerio [20] = assay: Induction of morphological abnormality in wild type zebrafish embryo in E3 medium dosed 24 hrs of post fertilization; format: functional, organism-based
Sus scrofa [21] = species on record: Sus scrofa; settings: 100 nM
Sus scrofa [22] = species on record: Sus scrofa; settings: 100 nM; remark: listed apart in the source

solubility thermodynamic [1]: 1 µM (≈ 0.417 µg/mL)
SMILES: Cc1ccc(-c2ccc(CSc3nnc(-c4ccc5c(c4)OCCO5)o3)cc2)nc1

SMILES: NC(=O)c1cc(F)ccc1-c1ccc(CSc2nnc(-c3ccc4c(c3)OCCO4)o2)cc1
inhibition [2]: Active | inhibition [3]: Active | inhibition [4]: Active | IC50 [5]: 42 nM | solubility thermodynamic [1]: 73 µM (≈ 33.8 µg/mL) | inhibition [6]: Active | inhibition [7]: Active | inhibition [8]: Active | Activity (Danio rerio [9]): Active | IC50 [10]: 140 nM | inhibition [11]: Active | inhibition [12]: Active | inhibition [13]: Active | inhibition [14]: Active | inhibition [15]: Active | Activity (Danio rerio [16]): Active | Activity (Danio rerio [17]): inactive | inhibition [18]: Active | Activity (Danio rerio [19]): Non-toxic

SMILES: N#Cc1ccc(-c2ccc(CSc3nnc(-c4ccc5c(c4)OCCO5)o3)cc2)nc1
solubility thermodynamic [1]: 181 µM (≈ 77.6 µg/mL) | Activity (Danio rerio [20]): inactive | Activity (Danio rerio [19]): Non-toxic

solubility thermodynamic [1]: < 1 µM
SMILES: Cc1ccc(-c2ccc(CSc3nnc(-c4ccc5c(c4)OCCO5)o3)cc2)cn1

solubility thermodynamic [1]: 1 µM (≈ 0.445 µg/mL)
SMILES: N#Cc1cc(F)ccc1-c1ccc(CSc2nnc(-c3ccc4c(c3)OCCO4)o2)cc1

solubility thermodynamic [1]: 17 µM (≈ 7.16 µg/mL)
SMILES: Fc1ccc(-c2ccc(CSc3nnc(-c4ccc5c(c4)OCCO5)o3)cc2)cn1

solubility thermodynamic [1]: 50 µM (≈ 21.4 µg/mL)
SMILES: N#Cc1ccc(-c2ccc(CSc3nnc(-c4ccc5c(c4)OCCO5)o3)cc2)cn1

solubility thermodynamic [1]: 1 µM (≈ 0.422 µg/mL)
SMILES: Fc1ccc(-c2ccc(CSc3nnc(-c4ccc5c(c4)OCCO5)o3)cn2)cn1

inhibition (Sus scrofa [21]): 0% | inhibition (Sus scrofa [22]): 0%
SMILES: N#Cc1cc(F)ccc1-c1ccc(CS(=O)(=O)c2nnc(-c3ccc4c(c3)OCCO4)o2)cc1
